ChEMBL document CHEMBL4368907 (J Med Chem, 2019)
Numbered stars: 1 amine (or outer) side, 2 acyl side, 3 side chain; on linkers, the order of the positions; unused ones are H or OH. Square brackets hold non-standard residues; d marks the D form. Peptide text beside a SMILES is read from it. * marks the point of attachment. Phe(4-CH2SO3H) = N[C@@H](Cc1ccc(CS(=O)(=O)O)cc1)C(=O)O; C18 diacid = O=C(O)CCCCCCCCCCCCCCCCC(=O)*; γGlu = O=C(O)[C@H](CCC(=O)[*:2])N[*:1]; NMeF = CN[C@@H](Cc1ccccc1)C(=O)O; dNMeD = CN[C@H](CC(=O)O)C(=O)O; Nle = CCCC[C@H](N)C(=O)O; AEEA = NCCOCCOCC(=O)O

Experiments:
[1] = Chemical stability of the compound in sodium phosphate buffer assessed as loss of purity 0.5 mM at pH 7.4 at 37 degC after 1 week by UHLPC-UV analysis; type: physicochemical; conditions: read-out: Drug degradation
[2] = Chemical stability of the compound in sodium phosphate buffer assessed as purity 0.5 mM at pH 2.2 at 37 degC after 1 week by UHLPC-UV analysis; type: physicochemical; conditions: read-out: Stability
[3] = molecular target: T1, Cholecystokinin receptor type A (Homo sapiens, UniProt P32238); experiment: Displacement of [125I]-CCK-8 from human CCK1R expressed in human 1321N1 cell membranes after 2 hrs by SPA assay
T1 sequence (P32238 whole entry): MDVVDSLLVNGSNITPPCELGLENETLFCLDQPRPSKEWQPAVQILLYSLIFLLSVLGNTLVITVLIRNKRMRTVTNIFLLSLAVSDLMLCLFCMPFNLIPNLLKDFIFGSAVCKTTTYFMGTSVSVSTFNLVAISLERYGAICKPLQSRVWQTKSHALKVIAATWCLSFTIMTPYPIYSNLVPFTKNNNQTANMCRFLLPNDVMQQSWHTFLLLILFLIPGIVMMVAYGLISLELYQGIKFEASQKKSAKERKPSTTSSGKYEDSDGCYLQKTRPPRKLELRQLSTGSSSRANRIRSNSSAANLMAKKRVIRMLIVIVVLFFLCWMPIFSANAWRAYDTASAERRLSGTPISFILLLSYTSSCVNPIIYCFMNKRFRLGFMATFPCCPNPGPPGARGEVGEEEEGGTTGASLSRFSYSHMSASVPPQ

[4] = molecular target: T1, Cholecystokinin receptor type A; experiment: Agonist activity at human CCK1R expressed in human 1321N1 cells assessed as IP1 accumulation after 1 hr by HTRF assay; type: functional, cell-based
[5] = Drug metabolism in Ellegaard Gottingen minipig plasma assessed as C18d-gammaGlu-(OEG)2-Asp-Phe(4sm)-OH peptide metabolite formation at 5 nmol/kg, iv administered as single dose by LC-MS/MS analysis; type: ADME, organism-based, Sus scrofa; conditions: pig, in vivo
[6] = Drug metabolism in Ellegaard Gottingen minipig plasma assessed as C18d-gammaGlu-(OEG)2-Asp-Phe(4sm)-Nle-Gly-OH peptide metabolite formation at 5 nmol/kg, iv administered as single dose by LC-MS/MS analysis; type: ADME, organism-based, Sus scrofa; conditions: pig, in vivo
[7] = Drug metabolism in Ellegaard Gottingen minipig plasma assessed as C18d-gammaGlu-(OEG)2-Asp-Phe(4sm)-Nle-Gly-Trp-Nle-DMeAspOH peptide metabolite formation at 5 nmol/kg, iv administered as single dose by LC-MS/MS analysis; type: ADME, organism-based, Sus scrofa; conditions: pig, in vivo
albumin = albumin (Homo sapiens, UniProt P02768); experiment: Binding affinity to human serum albumin at 500 nM after 2 hrs by LC-MS analysis; type: ADME; conditions: read-out: PB (converted)
[8] = Protein binding in Ellegaard Gottingen minipig plasma at 500 nM after 2 hrs by LC-MS analysis; type: ADME, cell-free, Sus scrofa; conditions: pig, read-out: PPB (converted)
Sus scrofa [9] = experiment: Anti-obesity activity in lean Landrace Yorkshire Duroc pig assessed as food intake at 30 nmol/kg, sc measured up to 24 hrs post dose (reference value: 1.8 to 2.1 kg); type: functional
Sus scrofa [10] = experiment: Anti-obesity activity in lean Landrace Yorkshire Duroc pig assessed as food intake at 30 nmol/kg, sc measured at 24 to 48 hrs post dose (reference value: 1.8 to 2.1 kg); type: functional
Sus scrofa [11] = experiment: Anti-obesity activity in lean Landrace Yorkshire Duroc pig assessed as food intake at 30 nmol/kg, sc measured at 48 to 72 hrs post dose (reference value: 1.8 to 2.1 kg); type: functional
Sus scrofa [12] = experiment: Anti-obesity activity in lean Landrace Yorkshire Duroc pig assessed as food intake at 30 nmol/kg, sc measured at 72 to 96 hrs post dose (reference value: 1.8 to 2.1 kg); type: functional
[13] = Plasma concentration in lean Landrace Yorkshire Duroc pig at 30 nmol/kg, sc measured after 96 hrs post dose; type: ADME, organism-based, Sus scrofa
[14] = Toxicity in lean Landrace Yorkshire Duroc pig at 30 nmol/kg, sc measured up to 96 hrs post dose; type: organism-based, Sus scrofa; conditions: in vivo
[15] = Chemical stability of the compound in sodium phosphate buffer assessed as loss of purity 1 mM at pH 7.4 at 37 degC after 1 week by UHLPC-UV analysis; type: physicochemical; conditions: read-out: Drug degradation
[16] = Chemical stability of the compound in sodium phosphate buffer assessed as loss of purity 1 mM at pH 7.4 at 37 degC after 2 weeks by UHLPC-UV analysis; type: physicochemical; conditions: read-out: Drug degradation
[17] = Drug metabolism in sodium phosphate buffer assessed as (2R,5S,8S,14S,17S,21S,44S)-8-((1H-indol-3-yl)methyl)-2-(((S)-1-amino-1-oxo-3-phenylpropan-2-yl)(methyl)carbamoyl)-5,14-dibutyl-3-methyl-4,7,10,13,16,19,23,32,41,46-decaoxo-17-(4-(sulfomethyl)benzyl)-25,28,34,37-tetraoxa-3,6,9,12,15,18,22,31,40,45-decaazadohexacontane-1,21,44,62-tetracarboxylic acid formation at 1 mM at pH 7.4 at 37 degC after 1 to 2 weeks by UHLPC-UV analysis

Chain of albumin (P02768 whole entry): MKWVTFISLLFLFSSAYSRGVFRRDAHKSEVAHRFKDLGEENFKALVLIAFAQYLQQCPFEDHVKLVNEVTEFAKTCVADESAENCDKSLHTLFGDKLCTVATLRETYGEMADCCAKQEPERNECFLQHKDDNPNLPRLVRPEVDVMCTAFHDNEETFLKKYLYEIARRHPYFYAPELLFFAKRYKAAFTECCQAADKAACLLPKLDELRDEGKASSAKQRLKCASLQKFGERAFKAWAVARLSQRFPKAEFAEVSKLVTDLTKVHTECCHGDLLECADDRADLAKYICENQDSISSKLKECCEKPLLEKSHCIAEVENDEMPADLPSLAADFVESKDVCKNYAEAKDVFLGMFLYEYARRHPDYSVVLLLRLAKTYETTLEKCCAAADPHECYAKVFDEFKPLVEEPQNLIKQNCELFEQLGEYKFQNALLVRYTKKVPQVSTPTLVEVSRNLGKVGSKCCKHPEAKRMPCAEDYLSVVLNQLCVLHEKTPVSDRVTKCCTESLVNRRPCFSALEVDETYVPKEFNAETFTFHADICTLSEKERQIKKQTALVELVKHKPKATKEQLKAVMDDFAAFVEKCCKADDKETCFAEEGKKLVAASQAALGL

| degraded at 168 h, 500 µM [1] [%] | remaining at 168 h, 500 µM [2] [%] | IC50 [3] [nM] | EC50 [4] [nM] | Drug metabolism [5] | Drug metabolism [6] | Drug metabolism [7] | fraction unbound at 2 h, 0.5 µM (albumin) | fraction unbound at 2 h, 0.5 µM [8] | concentration at 96 h [13] [nM] | degraded at 168 h, 1000 µM [15] [%] | degraded at 336 h, 1000 µM [16] [%] | SMILES | Activity (Sus scrofa [9]) [kg] | Activity (Sus scrofa [10]) [kg] | Activity (Sus scrofa [11]) [kg] | Activity (Sus scrofa [12]) [kg] | Activity [14] | Drug metabolism [17] |
| --- | --- | --- | --- | --- | --- | --- | --- | --- | --- | --- | --- | --- | --- | --- | --- | --- | --- | --- |
| 0.8 | 22 |  |  |  |  |  |  |  |  |  |  | CCCC[C@H](NC(=O)[C@H](Cc1ccc(OS(=O)(=O)O)cc1)NC(=O)[C@H](CC(=O)O)NC(=O)COCCOCCNC(=O)COCCOCCNC(=O)CC[C@H](NC(=O)CCCCCCCCCCCCCCCCC(=O)O)C(=O)O)C(=O)NCC(=O)N[C@@H](Cc1c[nH]c2ccccc12)C(=O)N[C@@H](CCCC)C(=O)N[C@@H](CC(=O)O)C(=O)N[C@@H](Cc1ccccc1)C(N)=O |  |  |  |  |  |  |
|  |  | 0.0525 | 0.251 | Metabolite_Detected | Metabolite_Detected | Metabolite_Detected | 0.003 | 0.003 | 84.9 | 1.3 | 2.2 | CCCC[C@H](NC(=O)[C@H](Cc1ccc(CS(=O)(=O)O)cc1)NC(=O)[C@H](CC(=O)O)NC(=O)COCCOCCNC(=O)COCCOCCNC(=O)CC[C@H](NC(=O)CCCCCCCCCCCCCCCCC(=O)O)C(=O)O)C(=O)NCC(=O)N[C@@H](Cc1c[nH]c2ccccc12)C(=O)N[C@@H](CCCC)C(=O)N(C)[C@H](CC(=O)O)C(=O)N(C)[C@@H](Cc1ccccc1)C(N)=O ({C18 diacid-γGlu-AEEA-AEEA}-D[Phe(4-CH2SO3H)][Nle]GW[Nle][dNMeD][NMeF]-NH2) | 1 | 1.1 | 1.5 | 1.9 | Non-Toxic | Metabolite detected |
